Laboratory results as given in patent US10947223B2, “Substituted oxazines as beta-secretase inhibitors” (AMGEN INC., priority 2016, dated 2021).

Tests used:
BACE1 [1] = biological target: T1, BACE1 (Homo sapiens (Human), UniProt P56817); assay: In vitro enzymatic BACE1 FRET assay; assay type: biochemical; conditions: pH 4.5, read-out: BACE1 Enzyme IC50
Method: (§1) In Vitro Enzymatic BACE1 and BACE2 FRET (Fluorescence Resonance Energy Transfer) Assays
(§2) The cDNAs for both human recombinant BACE1 and 2 with C-terminal 6-His Tags were cloned into transient protein expression vectors, which were subsequently transfected into mammalian cell lines. These recombinant proteins were further purified using Ni-NTA affinity chromatography (Qiagen). The assay buffer used in these screens was 0.05 M acetate, pH 4.5, 8% DMSO final, 100 μM genapol (which is a nonionic detergent, below its Critical Micelle Concentration). The β-secretase enzyme (0.02 nM for BACE1 and 0.64 nM for BACE2), which was pre-incubated for one hour with the test compound, typically in about 1 uL of DMSO according to a serial dilution, was added thereto. The assay was effectively started by the addition of FRET substrate (50 nM) and the combination was incubated for one hour. The FRET assay was terminated by the addition of tris buffer, which raised the pH to neutrality, and the fluorescence was determined. The FRET substrate was a peptide with commercially available fluorophore and quencher, on opposite sides of the BACE cleavage site. The specific FRET substrate used in this assay was made by Amgen in-house. Commercially available FRET substrates, for example, the FRET substrate offered with the BACE1 FRET Assay Kit sold by ThermoFisher Scientific (Catalog Number P2985), may be used in this assay with the appropriate modifications, which are within the purview of the ability of a person with ordinary skill in the art. Proteolytic cleavage of the FRET substrate released quenching of fluorescence (excitation 488 nm and emission 590 nm).
Target sequence in this assay (P56817 46-501): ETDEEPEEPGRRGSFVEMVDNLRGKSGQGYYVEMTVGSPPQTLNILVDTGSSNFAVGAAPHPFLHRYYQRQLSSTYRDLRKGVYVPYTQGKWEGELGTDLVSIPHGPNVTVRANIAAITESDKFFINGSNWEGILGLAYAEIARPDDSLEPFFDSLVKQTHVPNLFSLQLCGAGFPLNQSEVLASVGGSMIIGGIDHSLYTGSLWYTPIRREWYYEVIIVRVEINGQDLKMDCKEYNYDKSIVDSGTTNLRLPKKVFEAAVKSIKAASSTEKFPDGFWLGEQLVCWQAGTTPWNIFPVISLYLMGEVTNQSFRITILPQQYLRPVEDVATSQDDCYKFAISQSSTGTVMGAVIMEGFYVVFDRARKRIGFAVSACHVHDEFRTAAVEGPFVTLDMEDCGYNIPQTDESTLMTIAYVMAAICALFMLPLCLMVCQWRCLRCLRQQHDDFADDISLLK

BACE1 [2] = biological target: T1, BACE1; assay: In vitro BACE1 cell-based assay (Aβ40 in conditioned medium, HTRF); conditions: Aβ40 in conditioned medium of cells expressing APP, 24 h
Method: In Vitro BACE1 Cell-Based Assay
The cell-based assay measures inhibition or reduction of Aβ40 in conditioned medium of test compound treated cells expressing amyloid precursor protein. Cells stably expressing Amyloid Precursor Protein (APP) were plated at a density of 45K cells/well in 384 well plates (Corning/BioCoat 354663). The test compounds were then added to cells in 22-point dose response concentrations with the starting concentration being 62.5 μM. The compounds were diluted from stock solutions in DMSO and the final DMSO concentration of the test compounds on cells was 0.625%. The cells were cultivated overnight at 37° C. and 5% CO2 in DMEM supplemented with 10% FBS. After 24 h of incubation with the test compounds, the conditioned media was collected and the Aβ40 levels were determined using HTRF (Homogeneous Time Resolved Fluorescence). The IC50 of the compound was calculated from the percent of control or percent inhibition of Aβ 40 as a function of the concentration of the test compound.
The HTRF to detect Aβ40 was performed in 384 well plates (Costar 3658). The antibody pair that were used to detect Aβ 40 from cell supernatants were ConfAb40 antibody (Amgen in-house) and biotinylated 6E10 (BIOLEGEND). As an alternative to ConfAb40, a commercially available antibody, Anti-beta Amyloid 1-40 antibody [BDI350] from Abcam, Cambridge, Mass. 02139-1517 (Product code: ab20068), may be used in this assay. The concentrations were 0.35 μg/mL of ConfAb40 antibody and 1.33 μg/mL of 6E10-biotinylated antibody, as well as 4.5 μg/mL of Streptavidin Allophycocyanin Conjugate (ThermoFisher Scientific) in HTRF Buffer ([…], 1% BSA, 0.5% Tween 20).
The conditioned media was incubated with above antibodies and Streptavidin Allophycocyanin Conjugate for 30-60 minutes at 23° C. The final readout was performed on Envision from PerkinElmer.
Target sequence in this assay (P56817 46-501, species assumed): as the sequence (P56817 46-501) above

human recombinant BACE2 = human recombinant BACE2 (Homo sapiens (Human), UniProt Q9Y5Z0); assay: In vitro enzymatic BACE2 FRET assay; assay type: biochemical; conditions: pH 4.5, read-out: BACE2 Enzyme IC50
Method: as §1, §2

Recombinant CatD = Recombinant CatD (Homo sapiens (Human), UniProt P07339); assay: In vitro enzymatic Cathepsin D (CatD) FRET assay; assay type: biochemical; conditions: pH 3.5, read-out: CatD Enzyme IC50
Method: In Vitro Enzymatic Cathepsin D (CatD) FRET Assay
Recombinant CatD was expressed in CHO cells. The assay buffer for CatD was 0.05 M citrate pH 3.5, 10% DMSO final, 5 mM CHAPS. The CatD enzyme (9 nM) was pre-incubated for one hour with inhibitors, typically in about 1 uL of DMSO according to a serial dilution, is added thereto. The assays was effectively started by the addition of different FRET substrates (20 nM for CatD) and the combination was incubated for one hour. The FRET assay was terminated with by addition of tris buffer, which raises the pH to neutrality, and the fluorescence was determined. The FRET substrate was a peptide with commercially available fluorophore and quencher, on opposite sides of the CatD cleavage site. The CatD substrate peptide sequence was based on sequence #1 of Table 1 from Gulnik et al., FEBS Lett. 413(2):379-384 (1997). Proteolytic cleavage of the FRET substrate released quenching of fluorescence (CatD excitation 500 nm and emission 580 nm).
The in vitro CatD FRET assay data for each of the Examples is provided in Table 2, conducted by the first procedure described above. […] Thus, with this surprising selectivity profile, the compounds provided herein are believed to minimize, reduce or completely eliminate any risk of retinal atrophy and abnormal development of the eye and of the retinal pigmented epithelium as it relates to the normal function and activity of CatD.

human recombinant BACE2, sequence (Q9Y5Z0 63-518): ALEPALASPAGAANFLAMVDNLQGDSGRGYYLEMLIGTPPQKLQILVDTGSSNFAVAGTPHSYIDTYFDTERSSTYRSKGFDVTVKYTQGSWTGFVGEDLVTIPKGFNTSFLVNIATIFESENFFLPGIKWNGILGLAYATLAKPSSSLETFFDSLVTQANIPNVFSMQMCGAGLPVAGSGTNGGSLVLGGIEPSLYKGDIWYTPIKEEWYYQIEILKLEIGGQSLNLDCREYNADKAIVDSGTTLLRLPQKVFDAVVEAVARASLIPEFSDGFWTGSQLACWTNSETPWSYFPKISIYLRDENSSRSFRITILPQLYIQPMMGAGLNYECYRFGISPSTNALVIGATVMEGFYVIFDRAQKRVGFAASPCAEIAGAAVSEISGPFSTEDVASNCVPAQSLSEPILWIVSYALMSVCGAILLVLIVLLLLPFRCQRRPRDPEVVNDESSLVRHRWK
Recombinant CatD, sequence (P07339 65-412): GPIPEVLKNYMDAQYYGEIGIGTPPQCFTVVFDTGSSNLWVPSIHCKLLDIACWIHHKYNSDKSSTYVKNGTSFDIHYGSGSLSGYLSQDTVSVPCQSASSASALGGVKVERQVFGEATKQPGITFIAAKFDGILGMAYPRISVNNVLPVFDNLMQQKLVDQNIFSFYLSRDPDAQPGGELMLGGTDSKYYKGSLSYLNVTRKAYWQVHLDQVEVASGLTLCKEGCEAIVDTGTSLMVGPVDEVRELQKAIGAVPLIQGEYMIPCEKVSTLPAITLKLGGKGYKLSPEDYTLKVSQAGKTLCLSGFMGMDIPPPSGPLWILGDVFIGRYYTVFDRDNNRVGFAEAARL

Row | SMILES | IC50 (BACE1 [1]) | IC50 (BACE1 [2]) | IC50 (human recombinant BACE2) | IC50 (Recombinant CatD)
1 | C[C@]1(c2cc(/C=C(\F)c3cnc(C#N)cn3)ccc2F)N=C(N)OC[C@@H]1OCC(F)(F)F [Example 112, 5-((Z)-2-(3-((4R,5R)-2-amino-4-methyl-5-(2,2,2-trifluoroethoxy)-5,6-dihydro-4H-1,3-oxazin-4-yl)-4-fluorophenyl)-1-fluorovinyl)pyrazine-2-carbonitrile] | 119 nM | 27 nM | 6360 nM | 970000 nM
2 | CC#CCOc1cnc(/C(F)=C/c2ccc(F)c([C@@]3(C)N=C(N)OC[C@@H]3OCC(F)(F)F)c2)cn1 [Example 113, (4R,5R)-4-(5-((Z)-2-(5-(but-2-yn-1-yloxy)pyrazin-2-yl)-2-fluorovinyl)-2-fluorophenyl)-4-methyl-5-(2,2,2-trifluoroethoxy)-5,6-dihydro-4H-1,3-oxazin-2-amine] | 52 nM | 48 nM | 17000 nM | 233000 nM
3 | C[C@@]1(c2cc(/C=C(\F)c3cnc(C#N)cn3)ccc2F)CO[C@@](C)(C(F)(F)F)C(N)=N1 [Example 105, 5-((Z)-2-(3-((3R,6R)-5-amino-3,6-dimethyl-6-(trifluoromethyl)-3,6-dihydro-2H-1,4-oxazin-3-yl)-4-fluorophenyl)-1-fluorovinyl)pyrazine-2-carbonitrile] | 46 nM | 130 nM | 273 nM | 415000 nM
4 | C[C@@]1(c2cc(/C=C(\F)c3ccc(Cl)cn3)ccc2F)CO[C@@](C)(C(F)(F)F)C(N)=N1 [Example 103, (2R,5R)-5-(5-((Z)-2-(5-chloropyridin-2-yl)-2-fluorovinyl)-2-fluorophenyl)-2,5-dimethyl-2-(trifluoromethyl)-5,6-dihydro-2H-1,4-oxazin-3-amine] | 65 nM | 693 nM | 17 nM | 19200 nM
5 | C[C@@]1(c2cc(/C=C(\F)c3cnc(Cl)cn3)ccc2F)CO[C@@](C)(C(F)(F)F)C(N)=N1 [Example 108, (2R,5R)-5-(5-((Z)-2-(5-chloropyrazin-2-yl)-2-fluorovinyl)-2-fluorophenyl)-2,5-dimethyl-2-(trifluoromethyl)-5,6-dihydro-2H-1,4-oxazin-3-amine] | 118 nM | 663 nM | 33 nM | 39300 nM
6 | NC1=N[C@@](c2cc(/C=C(\F)c3ccc(Br)cn3)ccc2F)(C(F)F)[C@H]2C[C@H]2O1 [Example 100, (1R,5S,6R)-5-(5-((Z)-2-(5-bromopyridin-2-yl)-2-fluorovinyl)-2-fluorophenyl)-5-(difluoromethyl)-2-oxa-4-azabicyclo[4.1.0]hept-3-en-3-amine] | 257 nM | 948 nM | 564 nM | 63900 nM
7 | N#Cc1ccc(/C(F)=C/c2ccc(F)c([C@@]3(C(F)F)N=C(N)O[C@@H]4C[C@@H]43)c2)nc1 [Example 102, 6-((Z)-2-(3-((1R,5S,6R)-3-amino-5-(difluoromethyl)-2-oxa-4-azabicyclo[4.1.0]hept-3-en-5-yl)-4-fluorophenyl)-1-fluorovinyl)nicotinonitrile] | 152 nM | 344 nM | 1620 nM | 222000 nM
8 | C#CCOc1cnc(/C(F)=C/c2ccc(F)c([C@@]3(C)N=C(N)OC[C@@H]3OCC(F)(F)F)c2)cn1 [Example 111, (4R,5R)-4-(2-fluoro-5-((Z)-2-fluoro-2-(5-(prop-2-yn-1-yloxy)pyrazin-2-yl)vinyl)phenyl)-4-methyl-5-(2,2,2-trifluoroethoxy)-5,6-dihydro-4H-1,3-oxazin-2-amine] | 152 nM | 59 nM | 16000 nM | 664000 nM
9 | NC1=N[C@@](c2cc(/C=C(\F)c3ccc(Cl)cn3)ccc2F)(C(F)F)[C@H]2C[C@H]2O1 [Example 101, (1R,5S,6R)-5-(5-((Z)-2-(5-chloropyridin-2-yl)-2-fluorovinyl)-2-fluorophenyl)-5-(difluoromethyl)-2-oxa-4-azabicyclo[4.1.0]hept-3-en-3-amine] | 954 nM | 1120 nM | 421 nM | 215000 nM
10 | C#CCOc1cnc(/C(F)=C/c2ccc(F)c([C@@]3(C)N=C(N)OCC3(F)F)c2)cn1 [Example 115, (R,Z)-5,5-difluoro-4-(2-fluoro-5-(2-fluoro-2-(5-(prop-2-yn-1-yloxy)pyrazin-2-yl)vinyl)phenyl)-4-methyl-5,6-dihydro-4H-1,3-oxazin-2-amine] | 283 nM | 4660 nM | 5840 nM | 119000 nM
11 | C[C@]1(c2cc(/C=C(\F)c3cnc(Cl)cn3)ccc2F)N=C(N)OC[C@@H]1OCC(F)(F)F [Example 110, (4R,5R)-4-(5-((Z)-2-(5-chloropyrazin-2-yl)-2-fluorovinyl)-2-fluorophenyl)-4-methyl-5-(2,2,2-trifluoroethoxy)-5,6-dihydro-4H-1,3-oxazin-2-amine] | 341 nM | 90 nM | 1500 nM | 524000 nM
12 | C[C@@]1(c2cc(/C=C(\F)c3cnc(OCC(F)(F)C(F)F)cn3)ccc2F)CO[C@@](C)(C(F)(F)F)C(N)=N1 [Example 106, (2R,5R)-5-(2-fluoro-5-((Z)-2-fluoro-2-(5-(2,2,3,3-tetrafluoropropoxy)pyrazin-2-yl)vinyl)phenyl)-2,5-dimethyl-2-(trifluoromethyl)-5,6-dihydro-2H-1,4-oxazin-3-amine] | 666 nM | 4130 nM | 1590 nM | 88400 nM
13 | C[C@@]1(c2cc(/C=C(\F)c3ccc(C#N)cn3)ccc2F)CO[C@@](C)(C(F)(F)F)C(N)=N1 [Example 104, 6-((Z)-2-(3-((3R,6R)-5-amino-3,6-dimethyl-6-(trifluoromethyl)-3,6-dihydro-2H-1,4-oxazin-3-yl)-4-fluorophenyl)-1-fluorovinyl)nicotinonitrile] | 26 nM | 152 nM | 95 nM | 204000 nM
14 | C[C@@]1(c2nc(/C=C(\F)c3ccc(C#N)cn3)ccc2F)CO[C@@](C)(C(F)(F)F)C(N)=N1 [Example 117, 6-((Z)-2-(6-((3R,6R)-5-amino-3,6-dimethyl-6-(trifluoromethyl)-3,6-dihydro-2H-1,4-oxazin-3-yl)-5-fluoropyridin-2-yl)-1-fluorovinyl)nicotinonitrile] | 149 nM | 90 nM | 853 nM | 121000 nM
15 | C[C@]1(c2cc(/C=C(\F)c3ccc(C#N)cn3)ccc2F)N=C(N)OCC1(F)F [Example 114, (R,Z)-6-(2-(3-(2-amino-5,5-difluoro-4-methyl-5,6-dihydro-4H-1,3-oxazin-4-yl)-4-fluorophenyl)-1-fluorovinyl)nicotinonitrile] | 256 nM | 2660 nM | 2730 nM | > 400000 nM
